Activity calls are given as the source filed them. The rule behind the calls is not given here.
Test system: L. donovani-infected THP-1 macrophages, intracellular amastigote imaging
Assay: intracellular L. donovani amastigote inhibition, imaging, THP-1 host macrophages, host toxicity (AID 1159564)
[1] = measured here: THP-1 host cell toxicity
[2] = measured here: amastigotes per macrophage

Compound	IC50	IC50 [1]	IC50 [2]
O=C(c1ccc(O)c(Cl)c1)N1CCN(c2cnccn2)CC1	5 µM	> 50 µM	3.2 µM
O=C(NC1CCN(C2Cc3ccc(NS(=O)(=O)c4cc(F)cc(F)c4)cc3C2)CC1)C1CC1 (stereo not given)	> 50 µM (inactive)	13 µM	13 µM
N#Cc1cc([N+](=O)[O-])ccc1NC1CCCCCC1	> 50 µM (inactive)	> 50 µM	> 50 µM
COc1ccc(S(=O)(=O)Nc2ccc(C(=O)Nc3nc(-c4ccccn4)cs3)cc2)cc1	0.4 µM	10 µM	0.16 µM
CC(C)Nc1nc(Cl)nc2ccccc12	2.5 µM	20 µM	1.3 µM
c1ccc(-c2nc(NC3CCCC3)c3ccccc3n2)nc1	2 µM	20 µM	1.3 µM
CC(C)C[C@H](NC(=O)c1csc(-c2cccs2)n1)C(=O)NC1(C#N)CC1	> 50 µM (inactive)	> 50 µM	> 50 µM
C=CCOCC1Cn2nc([N+](=O)[O-])nc2O1 (stereo not given)	> 50 µM (inactive)	> 50 µM	> 50 µM
Cn1nc([N+](=O)[O-])nc1Oc1ccc(C(=O)c2ccccc2)cc1	> 50 µM (inactive)	> 50 µM	> 50 µM
CCCC(=O)N(Cc1ccccn1)c1nc2ccccc2s1	> 50 µM (inactive)	> 50 µM	10 µM
O=C(CCCn1cnc([N+](=O)[O-])n1)Nc1cccc(Cl)c1	> 50 µM (inactive)	> 50 µM	> 50 µM
COc1cc(OC)cc(C(NS(=O)(=O)c2ccc(Cl)c(C(F)(F)F)c2)c2nccn2C)c1 (stereo not given)	6.3 µM	> 50 µM	5 µM
COc1cccc(C(=O)[C@H]2C[C@@H]2CN(Cc2ccccn2)Cc2ccccn2)c1	2 µM	> 50 µM	1.6 µM
O=C(Nc1ncc([N+](=O)[O-])s1)C1CC1	> 50 µM (inactive)	> 50 µM	> 50 µM
COc1cc(C2SCC(=O)Nc3c2c(C)nn3-c2nc3ccccc3s2)cc(OC)c1O (stereo not given)	0.32 µM	> 50 µM	0.25 µM
CN1CCCN(C(=O)c2ccc(N3CCCC3)cc2Cl)CC1	> 50 µM (inactive)	> 50 µM	> 50 µM
Oc1c(-c2n[nH]c(Cc3ccc(F)cc3)n2)ncc2cccnc12	1 µM	20 µM	1 µM
c1ccc2[nH]c(-c3ccc(N4CCCC4)nc3)nc2c1	> 50 µM (inactive)	32 µM	> 50 µM
CC(C)Oc1cccc(N2CCC(C(=O)N3CCCN(C(C)C)CC3)CC2)c1	> 50 µM (inactive)	> 50 µM	> 50 µM
COc1ccc(-c2nc3ncccc3o2)cc1NC(=O)c1cccs1	> 50 µM (inactive)	20 µM	> 50 µM
O=C(Cc1ccccc1)Nc1[nH]nc2sc(C(=O)NC3CCCC3)cc12	3.2 µM	1.6 µM	1.6 µM
COc1ccc(-c2cc(C)no2)cc1S(=O)(=O)Nc1ccc(C)c(C)c1	2.5 µM	> 50 µM	2 µM
COc1cccc(C(=O)[C@H]2C[C@@H]2CN(Cc2cccnc2)Cc2cccnc2)c1	> 50 µM (inactive)	40 µM	7.9 µM
CCN(CC)S(=O)(=O)c1ccc(C)c(NC(=O)c2cc(Cl)c3c(c2)OCO3)c1	> 50 µM (inactive)	> 50 µM	> 50 µM

Compound	IC50	IC50 [1]	IC50 [2]
O=C(NCC(c1cccs1)N1CCOCC1)c1ccc([N+](=O)[O-])o1 (stereo not given)	25 µM	25 µM	16 µM
O=c1[nH]c(NCCCNCc2cc(Br)cc(Br)c2)nc2ccsc12	5 µM	16 µM	2.5 µM
CCOC(=O)c1noc(N)c1-c1ccccc1	> 50 µM (inactive)	> 50 µM	> 50 µM
CC(C)CC(=O)NC(c1cccs1)c1ccc2cccnc2c1O (stereo not given)	7.9 µM	1.6 µM	3.2 µM
COc1ccc(Cl)cc1CC(=O)Nc1n[nH]c(-c2ccccn2)n1	6.3 µM	> 50 µM	5 µM
O=C(Nc1ccc(Br)cn1)c1ccc(Cn2cnc([N+](=O)[O-])n2)cc1	> 50 µM (inactive)	> 50 µM	> 50 µM
COCc1cc(Nc2ccccc2)nc(-c2ccccn2)n1	7.9 µM	> 50 µM	5 µM
Cc1cc(Nc2cc(C3CC3)[nH]n2)nc(N2CCC[C@H]2C(N)=O)n1	0.2 µM	0.13 µM	0.079 µM
Cc1ccccc1CNc1cc(C2CC2)nc(-c2nccn2C)n1	0.63 µM	10 µM	0.63 µM
CN(C)S(=O)(=O)c1ccc(-c2cnc(N)c(-c3nc4ccc(F)cc4[nH]3)c2)cc1	1.6 µM	4 µM	0.63 µM
c1ccc(-c2nc(NC3CCCCC3)cc(C3CC3)n2)nc1	4 µM	20 µM	3.2 µM
Cc1ccc(C)c(-n2nnnc2Sc2nc([N+](=O)[O-])nn2C)c1	> 50 µM (inactive)	> 50 µM	> 50 µM
Cn1nccc1NC(=O)Cn1ccc(-c2ccncc2)n1	> 50 µM (inactive)	> 50 µM	> 50 µM
CN(Cc1nc2ccccc2s1)C(=O)C=Cc1cc2ccccc2o1	> 50 µM (inactive)	> 50 µM	16 µM
O=C(CCCNC(=O)c1ccc(Cl)cc1)Nc1nc(-c2ccccn2)cs1	5 µM	> 50 µM	3.2 µM
O=C(Nc1cccc(F)c1)N1CCC(Oc2cccc(-c3cccnc3)c2)CC1	> 50 µM (inactive)	20 µM	0.79 µM
Cc1nc2c(-c3cccs3)c(C)nn2c(NCCO)c1C	> 50 µM (inactive)	> 50 µM	> 50 µM
CCCn1c(NC(=O)CCn2cc(Br)cn2)nc2ccccc21	10 µM	> 50 µM	5 µM
Cc1ccc(NC(=O)c2ccnc(N3CCCC3)c2)cc1-c1cc(C(N)=O)ccc1C	40 µM	32 µM	25 µM
O=C(Nc1ccc(C(F)(F)F)cc1)NC1(C(=O)NCc2ccco2)CCCCC1	> 50 µM (inactive)	32 µM	> 50 µM
O=C(CCc1ccc(-c2ccccc2)o1)N1CCN(c2ccc(O)cc2)CC1	4 µM	> 50 µM	1.3 µM
CC(C)c1cc(C(=O)N2CCCC(c3cc4ncccc4[nH]3)C2)on1 (stereo not given)	> 50 µM (inactive)	> 50 µM	> 50 µM
CN(C(=O)Nc1ccc2c(c1)CCN(C1CCC1)CC2)c1ccc(C#N)cc1	> 50 µM (inactive)	> 50 µM	> 50 µM
CCC(=O)Nc1ccc(-c2nc3ccc(Cl)cc3[nH]2)cc1	> 50 µM (inactive)	> 50 µM	> 50 µM

Compound	IC50	IC50 [1]	IC50 [2]
Cc1cc(Nc2ccc(C#N)c(Cl)c2C)n[nH]1	> 50 µM (inactive)	20 µM	> 50 µM
Cc1cc(NC(=O)c2ccc([N+](=O)[O-])s2)ccc1Br	2.5 µM	16 µM	1.6 µM
Nc1nc(-c2ccccn2)nc(-n2nc(-c3ccccc3)cc2N)n1	0.79 µM	10 µM	0.79 µM
Nc1nc(-c2ccccn2)nc(-n2nc(-c3cccc(C(F)(F)F)c3)cc2N)n1	0.79 µM	5 µM	0.5 µM
O=S(=O)(NCC(c1cccnc1)N1CCN(c2ccccc2F)CC1)c1ccc(F)cc1 (stereo not given)	> 50 µM (inactive)	> 50 µM	4 µM
CCN(CC)S(=O)(=O)c1ccc(Cn2nc(C(=O)Nc3ccncn3)c3ccccc32)cc1	> 50 µM (inactive)	> 50 µM	> 50 µM
Cc1cccnc1CN1CCN(CCCOc2ccc(-c3ccc(C(N)=O)cc3)cc2)CC1	32 µM	13 µM	10 µM
COc1cccc(S(=O)(=O)Nc2ccc3c(c2)CC(N2CCC(NC(=O)C4CC4)CC2)C3)c1 (stereo not given)	> 50 µM (inactive)	> 50 µM	25 µM
CCOc1cc(NCCCN2CCN(C)CC2)c2ncccc2c1	1.3 µM	6.3 µM	0.79 µM
O=C(COc1ccccc1)Nc1ccccc1C(=O)Nc1nccs1	> 50 µM (inactive)	7.9 µM	> 50 µM
NCc1csc(Nc2cc(Oc3ccccc3)ncn2)n1	25 µM	> 50 µM	25 µM
CCn1c(NC(=O)Cc2ccc(F)cc2)nc2ccccc21	10 µM	> 50 µM	6.3 µM
O=C(Nc1nc(-c2ccc(F)cc2)cs1)c1ccc([N+](=O)[O-])s1	1.3 µM	7.9 µM	1 µM
O=C(NCC1CCCCN1C(=O)c1cccc2ccccc12)c1ccccc1 (stereo not given)	> 50 µM (inactive)	> 50 µM	> 50 µM
COCCn1c(-c2ccccc2)cnc1NCc1ccccc1OC	6.3 µM	50 µM	6.3 µM
CCN(Cc1nc2ccc(C(=O)N3CCN(c4ncccn4)CC3)cc2[nH]1)C1CCCc2cccnc21 (stereo not given)	4 µM	20 µM	1.6 µM
O=C(NCCNc1noc(-c2ccc([N+](=O)[O-])cc2)n1)c1ccc(Cl)cc1	> 50 µM (inactive)	16 µM	> 50 µM
CC(=Cc1ccccc1)CN1CCC(=O)N(Cc2cccnc2)CC1	> 50 µM (inactive)	40 µM	32 µM
CNC(=O)C1Cc2ccccc2N1C(=O)Cc1ccc(OC)cc1 (stereo not given)	7.9 µM	7.9 µM	13 µM
CCS(=O)(=O)c1cccc(C(=O)Nc2nc(-c3ccccn3)cs2)c1	4 µM	20 µM	3.2 µM
Cn1nc(C(=O)N2CCc3ccccc32)c2c1CCS(=O)(=O)C2	4 µM	> 50 µM	1.6 µM
CC(C)(C)Nc1nc(-c2ccccn2)nc2ccccc12	1.6 µM	16 µM	1.3 µM

From PubChem BioAssay AID1159564 (GlaxoSmithKline (GSK), 2015)
